# Results from patent publication US20250049800A1, “VCP/p97 INHIBITOR FOR THE TREATMENT OF CANCER” (CASI Pharmaceuticals, Inc., priority 2021, published 2025).
# Where two headings read alike, the source gives them in different places.
# Experiments:
# [1] = test system: MV-4-11 (Human B Myelomoncytic Leukemia cell line); experiment: Combination Index (Chou-Talalay) of Compound 1 with second therapeutic agents; assay type: cell-based; conditions: agent in combination with Compound 1; CI scores across all 3 ratios averaged; MV-4-11
# Description: (§1) Each combination was tested in 3 cell lines: MOML-13 (Human Acute Myeloid Leukemia cell line; Addex Bio), MV-4-11 (Human B Myelomoncytic Leukemia cell line; ATCC), and OCI-AML-3 (Human Acute Myeloid Leukemia cell line).
# (§2) Within this range, 20 dose levels were tested for each combination, with each response determined in duplicate. […] The actual drug concentrations in the ratios were determined from the IC50 values obtained for each individual drug.
# (§3) Raw data was analyzed using Graph Pad Prism, four parameter logistic fits, and Chou-Talalay drug combination analyses. […] For data points with Fe<0, the fractional effect was set to 0.001. Data points with Fe>0.99 or <0.01 were omitted from the Chou-Talalay analysis because the Chou-Talalay analysis fits data to the Log of the fractional effect, with equal weight applied across the range of effect, such that the high and low end of the dose response, very small changes in effect within the range of experimental error erroneously skew the outcome of the model fit.
# (§4) A Combination Index (CI) vs Fractional Effect plot showing the actual combination index plotted vs Fractional effect value was plotted for each combination dose. In this analysis, CI=1 represents additive activity, CI>1 represent less than additive activity (often referred to as antagonism) and CI<1=synergistic activity (better than additive).
# [2] = test system: MOML-13 (Human Acute Myeloid Leukemia cell line); experiment: as above; assay type: cell-based; conditions: agent in combination with Compound 1; CI scores across all 3 ratios averaged; MOML-13
# Description: as §1, §2, §3, §4
# [3] = test system: OCI-AML-3 (Human Acute Myeloid Leukemia cell line); experiment: as above; assay type: cell-based; conditions: agent in combination with Compound 1; CI scores across all 3 ratios averaged; OCI-AML-3
# Description: as §1, §2, §3, §4
# MV4; 11 cell line = experiment: Cell Titer-Glo viability, fixed agent + dose response agent combinations; assay type: cell-based, human; conditions: Homo sapiens
# Description: (§5) The additional therapeutic agents for this example were azacitidine (Cayman Chemical Cat No. 11164), decitabine (Sigma Cat No. A3656) and venetoclax (InvivoChem Cat. No. V0001).
# (§6) Cell Culture: Three human acute myeloid leukemia tumor cell lines were used in this study: HL60, MV4;11 and MOLM-13. HL60 and MV4;11 were grown in IMDM base media with 20% and 10% FBS, respectively. MOLM-13 was grown in RPMI 1640 base media with 20% FBS. All culture media contained 2 mM glutamine, 100 units/mL sodium penicillin G, […] gentamicin, and 100 µg/mL streptomycin sulfate. The tumor cells were cultured in tissue culture flasks in a humidified incubator at 37° C., in an atmosphere of 5% CO2 and 95% air. Assay: Tumor cells were seeded in duplicate in a volume of 100 µL/well of media into 96-well micro-culture plates at initial densities low enough to allow for several population doublings (typically three to five) during the indicated incubation period. After a 24 hour incubation, test agents were added to each well. After 72 hours of culture with test articles, cell viability was determined using the Cell Titer-Glo® (Promega G7571) assay. Briefly, Cell Titer-Glo® (Promega G7571) reagents were equilibrated at room temperature for 30 minutes; 100 μL per well was added at endpoint (72 hours). Plates were gently shaken for two minutes and then incubated at room temperature for ten minutes prior to reading luminescence on the BMG Clariostar Plus microplate reader.
# (§7) An IC50 ratio for each combination was calculated from the ratio of the combination IC50 as compared to the applicable no fixed agent (vehicle) control.
# HL-60 cell line = experiment: as above; assay type: cell-based, human; conditions: Homo sapiens
# Description: as §5, §6, §7
# MOML-13 cell line = experiment: as above; assay type: cell-based, human; conditions: Homo sapiens
# Description: as §5, §6, §7
# [4] = CB-5083 tested previously in subjects; cited from earlier work
# HCC1937 (Breast) = experiment: Cell Titer-Glo viability: single agent IC50 and Compound 1 + PARP inhibitor matrix (Bliss); assay type: cell-based; conditions: single agent, read-out: Absolute IC50
# Description: (§8) The PARP inhibitors used for the study were talazoparib, olaparib and niraparib. […] was used as a reference control. […] For each drug agent on its own, IC50 values in each cell line were determined. Interactions of the combinations of Compound 1 and each PARP inhibitor was assessed as follows: […] Cisplatin and culture media were used as positive and negative control, respectively. The combination activities were assessed using CrownSyn software to determine synergy scores by Bliss Independence and Loewe additivity methods. […] Synergy scores calculated by both Bliss independence model and Loewe additivity model (see Greco, […]., Poch, G., Suhnel, J., Kundi, M., & Bodeker, W. (1992). Consensus on concepts and terminology for combined-action assessment: the […] agreement. […] Without being bound by theory, the Bliss independence model is often applied to asses synergy for non-interacting drugs that elicit their responses independently, e.g., by targeting separate pathways, whereas the Loewe additivity model may be more compatible where both drugs have similar modes of action on the same targets or pathways.
# DU4475 (Breast) = experiment: as above; assay type: cell-based; conditions: single agent, read-out: Absolute IC50
# Description: as §8
# SK-OV-3 (Ovary) = experiment: as above; assay type: cell-based; conditions: single agent, read-out: Absolute IC50
# Description: as §8
# OVCAR-8 (Ovary) = experiment: as above; assay type: cell-based; conditions: single agent, read-out: Absolute IC50
# Description: as §8
# MX-1 (Breast) = experiment: as above; assay type: cell-based; conditions: single agent, read-out: Absolute IC50
# Description: as §8
# IGR-OV1 (Ovary) = experiment: as above; assay type: cell-based; conditions: single agent, read-out: Absolute IC50
# Description: as §8
# [5] = test system: DoTc2 4510 (Uterus/Cervix); experiment: as above; assay type: cell-based; conditions: single agent, read-out: Absolute IC50
# Description: as §8
# HCC1395 (Breast) = experiment: as above; assay type: cell-based; conditions: single agent, read-out: Absolute IC50
# Description: as §8
# HCC1806 (Breast) = experiment: as above; assay type: cell-based; conditions: single agent, read-out: Absolute IC50
# Description: as §8
# Capan-1 (Pancreas) = experiment: as above; assay type: cell-based; conditions: single agent, read-out: Absolute IC50
# Description: as §8
structure (smiles),measurement,setting,value
COCC1(CO)C(=O)C2CCN1CC2 (centres unmarked) [APR-246],Combination Index,[1],1.285
same,Combination Index,[2],1.228
same,Combination Index,[3],1.279
CN(C)CCCOc1ccc(-c2ccc3ncc4c(c3c2)n(C2CCOCC2)c(=O)n4C)cn1 [AZDO156],Combination Index,[1],1.122
same,Combination Index,[2],1.293
same,Combination Index,[3],1.159
"Nc1ncn([C@@H]2O[C@H](CO)[C@@H](O)[C@H]2O)c(=O)n1 [Azacitidine, azacitidine, reference compound]",IC50,"MV4; 11 cell line; MV4-11, MV4, 11, fixed agent Compound 1 - 185 nM, read-out: IC50",0.11 µM
same,IC50,"HL-60 cell line; HL-60, HL-60, fixed agent Compound 1 - 210 nM, read-out: IC50",1.96 µM
same,IC50,"MOML-13 cell line; MOML-13, fixed agent Compound 1 - 75 nM, read-out: IC50",0.125 µM
"Cc1cc2c(C(N)=O)cccc2n1-c1nc2c(c(NCc3ccccc3)n1)COCC2 [CB-5083, 1-[7,8-dihydro-4-[(phenylmethyl)amino]-5H-pyrano[4,3-d]pyrimidin-2-yl]-2-methyl-1H-indole-4-carboxamide]",visual adverse events,[4],symptoms of visual impairment or other visual adverse events
N.N.[Cl][Pt][Cl] [Cisplatin],IC50,HCC1937 (Breast),12.1 µM
same,IC50,DU4475 (Breast),1.6 µM
same,IC50,SK-OV-3 (Ovary),8.3 µM
same,IC50,OVCAR-8 (Ovary),9.22 µM
same,IC50,MX-1 (Breast),6.6 µM
same,IC50,IGR-OV1 (Ovary),1.45 µM
same,IC50,[5],10.2 µM
same,IC50,HCC1395 (Breast),4.75 µM
same,IC50,HCC1806 (Breast),3.24 µM
same,IC50,Capan-1 (Pancreas),1.68 µM
"Nc1ncn([C@H]2C[C@H](O)[C@@H](CO)O2)c(=O)n1 [Decitabine, decitabine, reference compound]",IC50,MV4; 11 cell line; MV4-11,0.0071 µM
same,IC50,"MV4; 11 cell line; MV4-11, 72 h",0.39 µM
same,IC50,HL-60 cell line; HL-60,4.03 µM
same,IC50,"HL-60 cell line; HL-60, 72 h",5.29 µM
same,IC50,MOML-13 cell line,0.0065 µM
same,IC50,MOML-13 cell line; 72 h,0.0108 µM
